target: T1, Recombinant human renin (Homo sapiens, UniProt P00797); test: In vitro enzymatic activity assay of renin inhibitors (fluorogenic peptide substrate); format: biochemical; settings: read-out: IC50 of Exemplified Compounds Against Renin
T1 construct: isolate the active form (residues 67-406); made in house; host or cells: FreeStyle 293-F cells (transient expression of pcDNA3.1(+)/hREN)
T1 sequence (P00797 67-406): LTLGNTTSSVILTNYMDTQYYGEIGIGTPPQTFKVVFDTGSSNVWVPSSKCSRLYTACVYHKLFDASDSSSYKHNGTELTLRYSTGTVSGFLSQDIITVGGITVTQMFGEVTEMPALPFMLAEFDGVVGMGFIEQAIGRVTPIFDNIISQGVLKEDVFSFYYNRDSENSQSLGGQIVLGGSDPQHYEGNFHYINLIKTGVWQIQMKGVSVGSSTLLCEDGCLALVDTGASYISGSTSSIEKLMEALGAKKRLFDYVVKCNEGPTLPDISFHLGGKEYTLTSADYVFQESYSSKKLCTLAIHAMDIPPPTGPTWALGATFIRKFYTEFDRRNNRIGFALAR
How it was run: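 Recombinant human renin (3 nM final) pre-incubated 10 min at 37 °C with compounds in pH 7.4 Hepes/EDTA/DTT/0.1 mg/mL BSA/Brij35 buffer (optionally plus 2% BSA), 5% DMSO final; fluorogenic QXL520/HiLyteFluo488 peptide substrate added.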

IC50, 100 to 1000 nM:
COCCCn1c([C@@H]2CCCN(C(=O)C[C@H](N)CNC(=O)Nc3cc(C(C)(C)C)ccc3OC)C2)nc2ccccc21 [Compound 268, 1-((S)-2-amino-4-((R)-3-(1-(3-methoxypropyl)-1H-benzo[d]imidazol-2-yl)piperidin-1-yl)-4-oxobutyl)-3-(5-tert-butyl-2-methoxyphenyl)urea]
COCCCn1c([C@@H]2CCCN(C(=O)C[C@H](N)CNC(=O)Nc3ccccc3)C2)nc2ccccc21 [Compound 269, 1-((S)-2-amino-4-((R)-3-(1-(3-methoxypropyl)-1H-benzo[d]imidazol-2-yl)piperidin-1-yl)-4-oxobutyl)-3-phenylurea]
COCCCn1c([C@@H]2CCCN(C(=O)C[C@H](N)CNC(=O)c3cccc(Oc4ccccc4)c3)C2)nc2ccccc21 [Compound 270, N-((S)-2-amino-4-((R)-3-(1-(3-methoxypropyl)-1H-benzo[d]imidazol-2-yl)piperidin-1-yl)-4-oxobutyl)-3-phenoxybenzamide]
COCCCn1c([C@@H]2CCCN(C(=O)C[C@H](N)CNC(=O)c3ccc4c(c3)CCO4)C2)nc2ccccc21 [Compound 271, N-((S)-2-amino-4-((R)-3-(1-(3-methoxypropyl)-1H-benzo[d]imidazol-2-yl)piperidin-1-yl)-4-oxobutyl)-2,3-dihydrobenzofuran-5-carboxamide]
COCCCn1c([C@@H]2CCCN(C(=O)C[C@H](N)CNC(=O)Nc3ccccc3Oc3ccccc3)C2)nc2ccccc21 [Compound 272, 1-((S)-2-amino-4-((R)-3-(1-(3-methoxypropyl)-1H-benzo[d]imidazol-2-yl)piperidin-1-yl)-4-oxobutyl)-3-(2-phenoxyphenyl)urea]
COCCCn1c([C@@H]2CCCN(C(=O)C[C@H](N)CNC(=O)Nc3cc(OC)ccc3OC)C2)nc2ccccc21 [Compound 273, 1-((S)-2-amino-4-((R)-3-(1-(3-methoxypropyl)-1H-benzo[d]imidazol-2-yl)piperidin-1-yl)-4-oxobutyl)-3-(2,5-dimethoxyphenyl)urea]
COCCCn1c([C@@H]2CCCN(C(=O)C[C@H](N)CNC(=O)Nc3ccccc3OC(F)F)C2)nc2ccccc21 [Compound 274, 1-((S)-2-amino-4-((R)-3-(1-(3-methoxypropyl)-1H-benzo[d]imidazol-2-yl)piperidin-1-yl)-4-oxobutyl)-3-(2-(difluoromethoxy)phenyl)urea]
COCCCn1c([C@@H]2CCCN(C(=O)C[C@H](N)CNC(=O)c3ccc(-c4ccccc4[N+](=O)[O-])o3)C2)nc2ccccc21 [Compound 275, N-((S)-2-amino-4-((R)-3-(1-(3-methoxypropyl)-1H-benzo[d]imidazol-2-yl)piperidin-1-yl)-4-oxobutyl)-5-(2-nitrophenyl)furan-2-carboxamide]
COCCCn1c([C@@H]2CCCN(C(=O)C[C@H](N)CNC(=O)c3ccc(-c4cc(Cl)ccc4Cl)o3)C2)nc2ccccc21 [Compound 276, N-((S)-2-amino-4-((R)-3-(1-(3-methoxypropyl)-1H-benzo[d]imidazol-2-yl)piperidin-1-yl)-4-oxobutyl)-5-(2,5-dichlorophenyl)furan-2-carboxamide]
COCCCn1c([C@@H]2CCCN(C(=O)C[C@H](N)CNC(=O)c3ccc(-c4cccc(Cl)c4Cl)o3)C2)nc2ccccc21 [Compound 277, N-((S)-2-amino-4-((R)-3-(1-(3-methoxypropyl)-1H-benzo[d]imidazol-2-yl)piperidin-1-yl)-4-oxobutyl)-5-(2,3-dichlorophenyl)furan-2-carboxamide]
COCCCn1c([C@@H]2CCCN(C(=O)C[C@H](N)CNC(=O)c3ccc(Oc4ccccc4)cc3)C2)nc2ccccc21 [Compound 278, N-((S)-2-amino-4-((R)-3-(1-(3-methoxypropyl)-1H-benzo[d]imidazol-2-yl)piperidin-1-yl)-4-oxobutyl)-4-phenoxybenzamide]
COCCCn1c([C@@H]2CCCN(C(=O)C[C@H](N)CNC(=O)Nc3ccc(OC)cc3OC)C2)nc2ccccc21 [Compound 279, 1-((S)-2-amino-4-((R)-3-(1-(3-methoxypropyl)-1H-benzo[d]imidazol-2-yl)piperidin-1-yl)-4-oxobutyl)-3-(2,4-dimethoxyphenyl)urea]
COCCCn1c([C@@H]2CCCN(C(=O)C[C@H](N)CNC(=O)c3ccc(OC)cc3)C2)nc2ccccc21 [Compound 280, N-((S)-2-amino-4-((R)-3-(1-(3-methoxypropyl)-1H-benzo[d]imidazol-2-yl)piperidin-1-yl)-4-oxobutyl)-4-methoxybenzamide]
COCCCn1c([C@@H]2CCCN(C(=O)C[C@H](N)CNS(=O)(=O)c3ccc(Cl)cc3)C2)nc2ccccc21 [Compound 281, N-((S)-2-amino-4-((R)-3-(1-(3-methoxypropyl)-1H-benzo[d]imidazol-2-yl)piperidin-1-yl)-4-oxobutyl)-4-chlorobenzenesulfonamide]
COCCCn1c([C@@H]2CCCN(C(=O)C[C@H](N)CNC(=O)c3cccc(C(=O)OC)c3)C2)nc2ccccc21 [Compound 282, methyl 3-((S)-2-amino-4-((R)-3-(1-(3-methoxypropyl)-1H-benzo[d]imidazol-2-yl)piperidin-1-yl)-4-oxobutylcarbamoyl)benzoate]
COCCCn1c([C@@H]2CCCN(C(=O)C[C@H](N)CNC(=O)Nc3ccc(Cl)cc3)C2)nc2ccccc21 [Compound 283, 1-((S)-2-amino-4-((R)-3-(1-(3-methoxypropyl)-1H-benzo[d]imidazol-2-yl)piperidin-1-yl)-4-oxobutyl)-3-(4-chlorophenyl)urea]
COCCCn1c([C@@H]2CCCN(C(=O)C[C@H](N)CNC(=O)Nc3ccccc3SC)C2)nc2ccccc21 [Compound 284, 1-((S)-2-amino-4-((R)-3-(1-(3-methoxypropyl)-1H-benzo[d]imidazol-2-yl)piperidin-1-yl)-4-oxobutyl)-3-(2-(methylthio)phenyl)urea]
CCOc1ccccc1NC(=O)NC[C@@H](N)CC(=O)N1CCC[C@@H](c2nc3ccccc3n2CCCOC)C1 [Compound 285, 1-((S)-2-amino-4-((R)-3-(1-(3-methoxypropyl)-1H-benzo[d]imidazol-2-yl)piperidin-1-yl)-4-oxobutyl)-3-(2-ethoxyphenyl)urea]
CCCc1ccccc1NC(=O)NC[C@@H](N)CC(=O)N1CCC[C@@H](c2nc3ccccc3n2CCCOC)C1 [Compound 286, 1-((S)-2-amino-4-((R)-3-(1-(3-methoxypropyl)-1H-benzo[d]imidazol-2-yl)piperidin-1-yl)-4-oxobutyl)-3-(2-propylphenyl)urea]
COCCCn1c([C@@H]2CCCN(C(=O)C[C@H](N)CNC(=O)Nc3cc(C)ccc3OC)C2)nc2ccccc21 [Compound 287, 1-((S)-2-amino-4-((R)-3-(1-(3-methoxypropyl)-1H-benzo[d]imidazol-2-yl)piperidin-1-yl)-4-oxobutyl)-3-(2-methoxy-5-methylphenyl)urea]

Reference: patent US8138168B1 (Takeda Pharmaceutical Company Limited, priority 2007, dated 2012)
